The values that follow come from patent US8349851B2, “JAK kinase modulating compounds and methods of use thereof” (Ambit Biosciences Corp., priority 2009, dated 2013).

Where a name gives a salt, the structure may show the parent alone.

In assay [1] the test system is csTF-1 cells (GM-CSFR/JAK2/STAT5 pathway). The experiment in a line: csTF-1 cell-based reporter assay. The arrangement: species or system human. The settings on record: Homo sapiens; GM-CSF at 2 ng/mL, 4 hours; read-out: Cell Assay: CS0017: CS TF-1 reporter assay: IC50. Here is the method: csTF-1 Cell-based Reporter Assay
csTF-1 cells are derived from the human erythroleukemia cell line that is growth dependent on GM-CSF and has an intact GM-CSFR/JAK2/STAT5 pathway. The cell line contains stably integrated beta-lactamase reporter gene under the control of the […] (irf 1) response element recognized by the activated transcription factor STATS. csTF-1 cells (Invitrogen K1219) were washed with assay media (97% OPTIMEM/0.5% dialyzed FBS/0.1 mM NEAA/1 mM Na pyr/P/S) and seeded in the same media at 5×10^5 cell/mL in T150 flask. After 16 hour incubation, cells were seeded at 2×10^5 cell/well in 50 μl volume, into Costar, clear bottom, 96-well assay plates. Serial dilutions of compounds were added to the plates with final DMSO concentration at 0.5% and GM-CSF at 2 ng/mL and the plates were then incubated at […] and 5% CO2 for 4 hours. The plates were brought to room temperature before adding Substrate Mixture according to manufacturer's protocol (Invitrogen, Catalog #K1085). The assay plates containing the substrate mixture were incubated in the dark at room temperature for 2 hours. Blue and green fluorescence was measured with excitation at 409 nm and emission at 460 nm (for blue) and excitation at 409 nm and emission at 530 nm (for green) using Spectra Max Gemini EM.

The target of a further assay is T1, JAK3 (Homo sapiens, UniProt P52333).
T1 construct: made in house
T1 sequence (P52333 822-1111 limits assumed): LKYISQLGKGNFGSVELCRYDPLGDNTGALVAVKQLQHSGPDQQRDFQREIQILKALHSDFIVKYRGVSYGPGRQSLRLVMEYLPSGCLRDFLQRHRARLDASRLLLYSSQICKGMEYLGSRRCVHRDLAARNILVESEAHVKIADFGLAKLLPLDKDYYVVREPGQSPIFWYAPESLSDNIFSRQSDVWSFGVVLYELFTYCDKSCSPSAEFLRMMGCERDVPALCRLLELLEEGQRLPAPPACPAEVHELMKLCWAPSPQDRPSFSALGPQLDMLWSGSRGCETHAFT
Nature of the assay: Competition binding assay, JAK3. The settings on record: read-out: Binding Assay: JAK3 (active_KD, ENZ). The source says:
(§1) Competition Binding Assay to Determine Binding Constants (Kd) of the Compounds Against JAK Kinases
(§2) Competition binding assays used herein were developed, validated and performed as described in Fabian et al., Nature Biotechnology 2005, 23,329-336. Kinases were produced as fusions to T7 phage (See, Fabian et al. or WO04/015142) or alternatively, the kinases were expressed in HEK-293 cells and subsequently tagged with DNA for PCR detection (See, WO08/005310). For the binding assays, streptavidin-coated magnetic beads were treated with biotinylated affinity ligands for 30 min at rt to generate affinity resins. The liganded beads were blocked with excess biotin and washed with blocking buffer (SeaBlock (Pierce), 1% BSA, 0.05% Tween 20, 1 mM DTT) to remove unbound ligand and to reduce non-specific binding. […] Test compounds were prepared as 100× stocks in DMSO and rapidly diluted into the aqueous environment. DMSO was added to control assays lacking a test compound. Primary screen interactions were performed in polypropylene 384-well plates in a final volume of 34 μL, while Kd determinations were performed in polystyrene 96-well plates in a final volume of 135 μL. […] The kinase concentration in the eluates was measured by quantitative PCR. Each kinase was tested individually against each compound. Kds were determined using eleven serial threefold dilutions. A selectivity score, which is a quantitative measure of selectivity of a compound against a panel of enzymes, may be calculated for a compound by dividing the number of enzymes for which a compound meets a set criteria, (for example, a binding constant of 100 nM or less), by the total number of enzymes tested.

In a further assay the target is T2, JAK2 (Homo sapiens, UniProt O60674).
T2 construct: made in house
T2 sequence (O60674 849-1124 limits assumed): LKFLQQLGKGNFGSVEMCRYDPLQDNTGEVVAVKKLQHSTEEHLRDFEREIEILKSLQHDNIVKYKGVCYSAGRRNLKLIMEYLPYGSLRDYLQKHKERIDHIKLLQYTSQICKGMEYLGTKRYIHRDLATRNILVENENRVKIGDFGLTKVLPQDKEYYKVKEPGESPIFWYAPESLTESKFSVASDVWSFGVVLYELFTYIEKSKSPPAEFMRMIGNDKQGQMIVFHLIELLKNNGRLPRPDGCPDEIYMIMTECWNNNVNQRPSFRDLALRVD
The experiment in a line: Competition binding assay, JAK2. The note with it: read-out: Binding Assay: JAK2 (active_KD).
Excerpt: as §1, §2

The target of the next assay is T3, AuroraB (Homo sapiens, UniProt Q96GD4).
T3 construct: made in house
T3 sequence (Q96GD4 whole entry): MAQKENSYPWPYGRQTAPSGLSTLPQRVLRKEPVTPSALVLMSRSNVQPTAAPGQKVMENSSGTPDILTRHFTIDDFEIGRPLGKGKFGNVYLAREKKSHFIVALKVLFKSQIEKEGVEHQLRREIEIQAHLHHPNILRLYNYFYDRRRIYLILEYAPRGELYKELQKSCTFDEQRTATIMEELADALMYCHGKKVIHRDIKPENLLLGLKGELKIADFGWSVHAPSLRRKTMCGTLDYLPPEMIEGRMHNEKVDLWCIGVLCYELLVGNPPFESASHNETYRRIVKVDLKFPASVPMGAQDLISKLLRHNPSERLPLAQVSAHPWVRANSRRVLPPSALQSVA
The experiment in a line: Competition binding assay, Aurora B.
Excerpt: Methods for determining binding constant against Aurora B kinase are known to one of skill in the art. Exemplary methods are described in U.S. provisional application No. 61/294,413, and Fabian et al., Nature Biotechnology 2005, 23,329-336.
as §2

As usually defined, the IC50 is the concentration at which inhibition is half-maximal.

On to `OC(c1ccc(F)cc1)c1nc(Nc2cc[nH]n2)c2ccccc2n1` (racemic) [Example 6, (R,S)-(4-(1H-pyrazol-3-ylamino)quinazolin-2-yl)(4-fluorophenyl)methanol], for which the IC50 in assay [1] is not above 0.1 µM. For the same compound, the Kd was 0.01 to 0.1 µM on JAK3, not above 0.001 µM on JAK2 and more than 0.2 µM at AuroraB.

As for `Fc1ccc(C(F)c2nc(Nc3cc[nH]n3)c3ccccc3n2)cc1` (racemic) [Example 7, (R,S)-2-(fluoro(4-fluorophenyl)methyl)-N-(1H-pyrazol-3-yl)quinazolin-4-amine], the IC50 in assay [1] lay in the range of 0.1 to 0.5 µM. Further, the Kd is 0.01 to 0.1 µM at JAK3, not above 0.001 µM at JAK2 and more than 0.2 µM on AuroraB.

As for `Cc1cc(Nc2nc(C(O)c3ccc(F)cc3)nc3ccccc23)n[nH]1` (racemic) [Example 12, (R,S)-(4-fluorophenyl)(4-(5-methyl-1H-pyrazol-3-ylamino)quinazolin-2-yl)methanol hydrochloride], in assay [1], the IC50 is not above 0.1 µM. Besides, the Kd at AuroraB lay in the range of 0.05 to 0.2 µM.

As to `COC(c1ccc(F)cc1)c1nc(Nc2cc(C)[nH]n2)c2ccccc2n1` (racemic) [Example 13, (R,S)-2-((4-fluorophenyl)(methoxy)methyl)-N-(5-methyl-1H-pyrazol-3-yl)quinazolin-4-amine], in assay [1], the IC50 lay within 0.1 to 0.5 µM. In addition, the results for the Kd on JAK3, at JAK2 and at AuroraB were 0.01 to 0.1 µM, not above 0.001 µM and more than 0.2 µM, respectively.

As to `Cc1cc(Nc2nc(C(N)c3ccc(F)cc3)nc3ccccc23)n[nH]1` (racemic) [Example 14, (R,S)-2-(amino(4-fluorophenyl)methyl)-N-(5-methyl-1H-pyrazol-3-yl)quinazolin-4-amine], in assay [1], the IC50 was 0.1 to 0.5 µM. For the same compound, the Kd on JAK3 is 0.01 to 0.1 µM; on JAK2, 0.001 to 0.01 µM; at AuroraB it was more than 0.2 µM.

Take `N#Cc1cc(Nc2nc(C(O)c3ccc(F)cc3)nc3ccccc23)n[nH]1` (racemic) [Example 15, (R,S)-3-(2-((4-fluorophenyl)(hydroxy)methyl)quinazolin-4-ylamino)-1H-pyrazole-5-carbonitrile]: in assay [1], the IC50 was more than 0.5 µM. Further, the results for the Kd on JAK3, on JAK2 and on AuroraB were more than 0.1 µM, more than 0.01 µM and more than 0.2 µM, respectively.

On to `Cc1cc(Nc2nc(C(O)c3ccc(F)cc3)nc3cccc(F)c23)n[nH]1` (racemic) [Example 16, (R,S)-(5-fluoro-4-(5-methyl-1H-pyrazol-3-ylamino)quinazolin-2-yl)(4-fluorophenyl)methanol], for which the IC50 in assay [1] lay within 0.1 to 0.5 µM. Moreover, the figures for the Kd on JAK3, at JAK2 and on AuroraB were more than 0.1 µM, more than 0.01 µM and more than 0.2 µM, respectively.

Regarding `Cc1cc(Nc2nc(C(O)c3ccc(F)cc3)nc3cc(C(F)(F)F)ccc23)n[nH]1` (racemic) [Example 18, (R,S)-(4-fluorophenyl)(4-(5-methyl-1H-pyrazol-3-ylamino)-7-(trifluoromethyl)quinazolin-2-yl)methanol], in assay [1], the IC50 is 0.1 to 0.5 µM. Further, the Kd at JAK3 is 0.01 to 0.1 µM; at JAK2, 0.001 to 0.01 µM; at AuroraB, more than 0.2 µM.

With `OC(c1ccc(F)cc1)c1nc(Nc2cc[nH]n2)c2ccc(I)cc2n1` (racemic) [Example 23, (R,S)-(4-(1H-pyrazol-3-ylamino)-7-iodoquinazolin-2-yl)(4-fluorophenyl)methanol], the IC50 in assay [1] lay within 0.1 to 0.5 µM. Moreover, the Kd on JAK3 was more than 0.1 µM; on JAK2, 0.001 to 0.01 µM; at AuroraB, more than 0.2 µM.

For `Cc1ccc2c(Nc3cc(C)[nH]n3)nc(C(O)c3ccc(F)cc3)nc2c1` (racemic) [Example 25, (R,S)-(4-fluorophenyl)(7-methyl-4-(5-methyl-1H-pyrazol-3-ylamino)quinazolin-2-yl)methanol], the IC50 in assay [1] is not above 0.1 µM. The Kd is 0.01 to 0.1 µM at JAK3, not above 0.001 µM on JAK2 and more than 0.2 µM on AuroraB.

As to `COc1ccc2c(Nc3cc[nH]n3)nc(C(O)c3ccc(F)cc3)nc2c1` (racemic) [Example 29, (R,S)-(4-(1H-pyrazol-3-ylamino)-7-methoxyquinazolin-2-yl)(4-fluorophenyl)methanol], the IC50 in assay [1] was not above 0.1 µM. Further, the Kd is 0.01 to 0.1 µM at JAK3, not above 0.001 µM at JAK2 and more than 0.2 µM on AuroraB.

For the compound `COc1ccc2c(Nc3cc(C)[nH]n3)nc(C(O)c3ccc(F)cc3)nc2c1` (racemic) [Example 31, (R,S)-(4-fluorophenyl)(7-methoxy-4-(5-methyl-1H-pyrazol-3-ylamino)quinazolin-2-yl)methanol], the IC50 in assay [1] is not above 0.1 µM. Besides, the Kd at JAK3 is 0.01 to 0.1 µM; at JAK2, not above 0.001 µM; on AuroraB, more than 0.2 µM.

With `Cc1cc(Nc2nc(C(O)c3ccc(F)cc3)nc3cc(O)ccc23)n[nH]1` (racemic) [Example 36, (R,S)-2-((4-fluorophenyl)(hydroxy)methyl)-4-(5-methyl-1H-pyrazol-3-ylamino)quinazolin-7-ol], the IC50 in assay [1] was not above 0.1 µM. Moreover, the Kd at JAK3 is 0.01 to 0.1 µM; on JAK2 it was not above 0.001 µM; on AuroraB, 0.02 to 0.05 µM.

`Cc1cc(Nc2nc(C(O)c3ccc(F)cc3)nc3cc(OCCN4CCOCC4)ccc23)n[nH]1` (racemic) [Example 38, (R,S)-(4-fluorophenyl)(4-(5-methyl-1H-pyrazol-3-ylamino)-7-(2-morpholinoethoxy)quinazolin-2-yl)methanol]: the IC50 in assay [1] lay in the range of 0.1 to 0.5 µM. For the same compound, the Kd at JAK3 is not above 0.01 µM; on JAK2, not above 0.001 µM; on AuroraB, more than 0.2 µM.

In the case of `Cc1cc(Nc2nc(C(CC#N)c3ccc(F)cc3)nc3ccccc23)n[nH]1` (stereo not drawn) [Example 68, 3-(4-fluorophenyl)-3-(4-(5-methyl-1H-pyrazol-3-ylamino)quinazolin-2-yl)propanenitrile], the IC50 in assay [1] was not above 0.1 µM. Besides, the Kd on JAK3 was in the range of 0.01 to 0.1 µM; on JAK2, 0.001 to 0.01 µM.

With `Cc1cc(Nc2nc(C(NC3CC3)c3ccc(F)cc3)nc3ccccc23)n[nH]1` (stereo not drawn) [Example 69, 2-((cyclopropylamino)(4-fluorophenyl)methyl)-N-(5-methyl-1H-pyrazol-3-yl)quinazolin-4-amine], the IC50 in assay [1] was 0.1 to 0.5 µM. The Kd at JAK3 is 0.01 to 0.1 µM; at JAK2 it was not above 0.001 µM.

Regarding `Cc1cc(Nc2nc(C(CS(C)(=O)=O)c3ccc(F)cc3)nc3ccccc23)n[nH]1` (stereo not drawn) [Example 70, 2-(1-(4-fluorophenyl)-2-(methylsulfonyl)ethyl)-N-(5-methyl-1H-pyrazol-3-yl)quinazolin-4-amine], in assay [1], the IC50 is 0.1 to 0.5 µM. Further, the Kd is 0.01 to 0.1 µM at JAK3 and not above 0.001 µM at JAK2.

As for `Cc1cc(Nc2nc(C(CCN)c3ccc(F)cc3)nc3ccccc23)n[nH]1` (stereo not drawn) [Example 71, 2-(3-amino-1-(4-fluorophenyl)propyl)-N-(5-methyl-1H-pyrazol-3-yl)quinazolin-4-amine], the IC50 in assay [1] was more than 0.5 µM. Also, the Kd was in the range of 0.01 to 0.1 µM at JAK3 and 0.001 to 0.01 µM at JAK2.

As for `COc1cc(Nc2nc(C(=O)c3ccc(F)cc3)nc3ccccc23)n[nH]1` [Example 73, (4-fluorophenyl)(4-(5-methoxy-1H-pyrazol-3-ylamino)quinazolin-2-yl)methanone], the IC50 in assay [1] lay in the range of 0.1 to 0.5 µM. In addition, the Kd on JAK3 was 0.01 to 0.1 µM; at JAK2, not above 0.001 µM.
